Measured values published in patent publication US9421209B2, “Kinase modulators” (Rhizen Pharmaceuticals SA, priority 2009, dated 2016).

How the values were obtained:
P110 δ/Pi3K δ = P110 δ/Pi3K δ (Homo sapiens, UniProt O00329); test: Fluorescent (HTRF) determination of PI3K enzyme activity, δ isoform; assay type: biochemical; set-up: inhibition: dose or concentration left out as unconfirmed; conditions: for IC50: read-out: P110 δ/Pi3K δ IC 50 nM
Source text: Assay 1: Fluorescent determination of PI3Kinase Kinase enzyme activity
Phosphoinositide 3 kinases (PI3K) belong to a class of lipid kinases that play a critical role in the regulation of several key cellular processes. The PI3K are capable of phosphorylating the 3-hydroxy position of phosphoinositols thereby generating second messengers involved in downstream signalling events. The homogenous time resolved fluorescence (HTRF) assay allows detection of 3,4,5-triphosphate (PIP3) formed as a result of phosphorylation of phosphotidylinositol 4,5-biphosphate (PIP2) by PI3K isoforms such as α, β, γ or δ.
PI3K isoform activity for α, β, γ or δ was determined using a PI3K human HTRF™ Assay Kit (Millipore, Billerica, Mass.) with modifications. All incubations were carried out at room temperature. […] After the initial incubation, 5 μl/well of 400 μM ATP was added and incubated for an additional 30 minutes. Reaction was terminated by adding 5 μl/well stop solution (Millipore, Billerica, Mass.). Five microliters of detection mix (Millipore, Billerica, Mass.) were then added to each well and was incubated for 6-18 h in the dark. […] Data were analyzed using Graphpad Prism (Graphpad software; San Diego Calif.) for IC50 determination. Percent inhibition was calculated based on the values for the blank and enzyme controls.

Chain of P110 δ/Pi3K δ (O00329 whole entry, canonical isoform): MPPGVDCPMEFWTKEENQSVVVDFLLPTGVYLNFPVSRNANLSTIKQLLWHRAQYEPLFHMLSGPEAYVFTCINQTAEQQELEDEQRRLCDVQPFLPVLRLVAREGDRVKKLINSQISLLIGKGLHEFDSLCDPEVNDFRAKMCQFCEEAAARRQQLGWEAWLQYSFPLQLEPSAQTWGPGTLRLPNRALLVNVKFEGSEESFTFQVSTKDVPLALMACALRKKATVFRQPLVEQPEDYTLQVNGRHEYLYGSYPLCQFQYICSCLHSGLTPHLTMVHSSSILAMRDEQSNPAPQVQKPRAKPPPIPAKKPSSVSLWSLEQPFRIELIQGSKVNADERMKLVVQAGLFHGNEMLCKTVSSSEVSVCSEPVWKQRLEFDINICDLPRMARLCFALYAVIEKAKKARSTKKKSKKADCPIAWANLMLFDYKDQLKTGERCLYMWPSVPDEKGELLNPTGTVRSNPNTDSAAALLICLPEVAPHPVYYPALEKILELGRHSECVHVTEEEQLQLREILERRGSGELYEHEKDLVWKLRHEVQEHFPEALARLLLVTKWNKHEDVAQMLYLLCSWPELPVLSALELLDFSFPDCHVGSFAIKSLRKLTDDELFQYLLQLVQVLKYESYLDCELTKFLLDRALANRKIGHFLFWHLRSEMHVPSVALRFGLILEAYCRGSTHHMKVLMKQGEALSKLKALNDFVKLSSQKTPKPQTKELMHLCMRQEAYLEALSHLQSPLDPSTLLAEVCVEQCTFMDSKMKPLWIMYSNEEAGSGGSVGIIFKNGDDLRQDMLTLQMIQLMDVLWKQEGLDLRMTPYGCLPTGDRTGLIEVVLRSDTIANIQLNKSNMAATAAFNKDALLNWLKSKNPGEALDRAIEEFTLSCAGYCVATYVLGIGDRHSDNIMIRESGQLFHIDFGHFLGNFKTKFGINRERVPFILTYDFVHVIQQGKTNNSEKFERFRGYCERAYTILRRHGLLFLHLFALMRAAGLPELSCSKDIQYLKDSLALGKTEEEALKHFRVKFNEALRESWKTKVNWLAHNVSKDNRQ
Chain of P110 δ/Pi3K δ (P27986 whole entry partner, canonical isoform): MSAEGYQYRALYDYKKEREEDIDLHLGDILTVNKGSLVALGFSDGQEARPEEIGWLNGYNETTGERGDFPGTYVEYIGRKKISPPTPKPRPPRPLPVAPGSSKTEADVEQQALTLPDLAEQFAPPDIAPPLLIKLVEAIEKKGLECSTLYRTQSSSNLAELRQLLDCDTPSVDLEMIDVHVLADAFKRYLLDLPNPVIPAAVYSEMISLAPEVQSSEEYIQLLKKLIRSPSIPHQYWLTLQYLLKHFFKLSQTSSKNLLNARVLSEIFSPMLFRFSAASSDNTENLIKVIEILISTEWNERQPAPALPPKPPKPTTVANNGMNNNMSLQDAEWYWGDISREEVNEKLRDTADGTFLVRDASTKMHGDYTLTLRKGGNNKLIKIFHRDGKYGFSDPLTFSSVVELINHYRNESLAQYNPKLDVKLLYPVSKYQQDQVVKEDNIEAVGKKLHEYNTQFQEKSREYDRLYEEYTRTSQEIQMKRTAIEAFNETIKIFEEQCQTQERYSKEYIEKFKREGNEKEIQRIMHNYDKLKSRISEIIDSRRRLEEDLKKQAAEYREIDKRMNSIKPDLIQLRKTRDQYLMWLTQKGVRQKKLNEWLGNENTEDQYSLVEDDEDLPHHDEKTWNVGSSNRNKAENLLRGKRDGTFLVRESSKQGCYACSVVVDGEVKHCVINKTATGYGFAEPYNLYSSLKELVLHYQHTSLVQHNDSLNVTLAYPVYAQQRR

CC(=O)Nc1cccc(-c2nn(Cc3oc4ccccc4c(=O)c3-c3ccccc3)c3ncnc(N)c23)c1 [Example 65, N-(3-(4-amino-1-((4-oxo-3-phenyl-4H-chromen-2-yl)methyl)-1H-pyrazolo[3,4-d]pyrimidin-3-yl)phenyl)acetamide]
melting point: 122 to 123 °C | inhibition at 1 µM (P110 δ/Pi3K δ): < 50%

Nc1ncnc2c1c(-c1cc(O)cc(F)c1)nn2Cc1oc2ccccc2c(=O)c1-c1ccccc1 [Example 66a, 2-((4-amino-3-(3-fluoro-5-hydroxyphenyl)-1H-pyrazolo[3,4-d]pyrimidin-1-yl)methyl)-3-phenyl-4H-chromen-4-one]
melting point: 260 to 262 °C | inhibition at 1 µM (P110 δ/Pi3K δ): 50 to 100% | IC50 (P110 δ/Pi3K δ): < 250 nM

COc1cc(F)cc(-c2nn(Cc3oc4ccccc4c(=O)c3-c3cccc(F)c3)c3ncnc(N)c23)c1 [Example 67, 2-((4-amino-3-(3-fluoro-5-methoxyphenyl)-1H-pyrazolo[3,4-d]pyrimidin-1-yl)methyl)-3-(3-fluorophenyl)-4H-chromen-4-one]
melting point: 115 to 117 °C | inhibition at 1 µM (P110 δ/Pi3K δ): < 50%

CC(c1oc2ccccc2c(=O)c1-c1ccccc1)n1nc(-c2cn[nH]c2)c2c(N)ncnc21 (centres unmarked) [Example 69, 2-(1-(4-amino-3-(1H-pyrazol-4-yl)-1H-pyrazolo[3,4-d]pyrimidin-1-yl)ethyl)-3-phenyl-4H-chromen-4-one]
melting point: 214 to 217 °C | inhibition at 1 µM (P110 δ/Pi3K δ): 50 to 100%

CC(c1oc2ccccc2c(=O)c1-c1ccccc1)n1nc(-c2ccc3cn[nH]c3c2)c2c(N)ncnc21 (centres unmarked) [Example 70, 2-(1-(4-amino-3-(1H-indazol-6-yl)-1H-pyrazolo[3,4-d]pyrimidin-1-yl)ethyl)-3-phenyl-4H-chromen-4-one]
melting point: 176 to 178 °C | inhibition at 1 µM (P110 δ/Pi3K δ): 50 to 100%

CC(c1oc2ccccc2c(=O)c1-c1ccccc1)n1nc(C#CC(C)(C)O)c2c(N)ncnc21 (centres unmarked) [Example 71, 2-(1-(4-amino-3-(3-hydroxy-3-methylbut-1-ynyl)-1H-pyrazolo[3,4-d]pyrimidin-1-yl)ethyl)-3-phenyl-4H-chromen-4-one]
melting point: 109 to 113 °C | inhibition at 1 µM (P110 δ/Pi3K δ): < 50%

CC(c1oc2ccccc2c(=O)c1-c1cccc(F)c1)n1nc(-c2cn[nH]c2)c2c(N)ncnc21 (centres unmarked) [Example 72, 2-(1-(4-amino-3-(1H-pyrazol-4-yl)-1H-pyrazolo[3,4-d]pyrimidin-1-yl)ethyl)-3-(3-fluorophenyl)-4H-chromen-4-one]
melting point: 223 to 226 °C | inhibition at 1 µM (P110 δ/Pi3K δ): 50 to 100% | IC50 (P110 δ/Pi3K δ): < 250 nM

C[C@H](Nc1ncnc2[nH]cnc12)c1oc2ccccc2c(=O)c1-c1ccccc1 [Example 73, (S)-2-(1-(9H-purin-6-ylamino)ethyl)-3-phenyl-4H-chromen-4-one]
melting point: 135 to 138 °C | inhibition at 1 µM (P110 δ/Pi3K δ): 50 to 100%

Nc1ncnc2c1c(-c1ccc3cn[nH]c3c1)nn2Cc1oc2ccccc2c(=O)c1-c1ccccc1 [Example 75, 2-((4-amino-3-(1H-indazol-6-yl)-1H-pyrazolo[3,4-d]pyrimidin-1-yl)methyl)-3-phenyl-4H-chromen-4-one]
melting point: 140 to 143 °C | inhibition at 1 µM (P110 δ/Pi3K δ): 50 to 100%

CC(c1oc2ccccc2c(=O)c1-c1cccc(F)c1)n1nc(-c2cc(O)cc(F)c2)c2c(N)ncnc21 (centres unmarked) [Example 76a, 2-(1-(4-amino-3-(3-fluoro-5-hydroxyphenyl)-1H-pyrazolo[3,4-d]pyrimidin-1-yl)ethyl)-3-(3-fluorophenyl)-4H-chromen-4-one]
melting point: 271 to 273 °C | inhibition at 1 µM (P110 δ/Pi3K δ): 50 to 100%

CC(c1oc2ccccc2c(=O)c1-c1cccc(F)c1)n1nc(-c2cccc3[nH]ncc23)c2c(N)ncnc21 (centres unmarked) [Example 77, 2-(1-(4-amino-3-(1H-indazol-4-yl)-1H-pyrazolo[3,4-d]pyrimidin-1-yl)ethyl)-3-(3-fluorophenyl)-4H-chromen-4-one]
melting point: 231 to 233 °C | inhibition at 1 µM (P110 δ/Pi3K δ): 50 to 100%

Cc1n[nH]c(C)c1-c1nn(C(C)c2oc3ccccc3c(=O)c2-c2cccc(F)c2)c2ncnc(N)c12 (centres unmarked) [Example 78, 2-(1-(4-amino-3-(3,5-dimethyl-1H-pyrazol-4-yl)-1H-pyrazolo[3,4-d]pyrimidin-1-yl)ethyl)-3-(3-fluorophenyl)-4H-chromen-4-one]
melting point: 240 to 243 °C | inhibition (P110 δ/Pi3K δ): < 50%

CC(c1oc2ccccc2c(=O)c1-c1cccc(F)c1)n1nc(-c2ccc3cn[nH]c3c2)c2c(N)ncnc21 (centres unmarked) [Example 80, 2-(1-(4-amino-3-(1H-indazol-6-yl)-1H-pyrazolo[3,4-d]pyrimidin-1-yl)ethyl)-3-(3-fluorophenyl)-4H-chromen-4-one]
melting point: 206 to 208 °C | inhibition (P110 δ/Pi3K δ): < 50%

CC(c1oc2ccccc2c(=O)c1-c1cccc(F)c1)n1nc(-c2ccccc2CO)c2c(N)ncnc21 (centres unmarked) [Example 81, 2-(1-(4-amino-3-(2-(hydroxymethyl)phenyl)-1H-pyrazolo[3,4-d]pyrimidin-1-yl)ethyl)-3-(3-fluorophenyl)-4H-chromen-4-one]
melting point: 185 to 189 °C | inhibition (P110 δ/Pi3K δ): < 50%

CC(c1oc2ccccc2c(=O)c1-c1cccc(F)c1)n1nc(C#CCO)c2c(N)ncnc21 (centres unmarked) [Example 83, 2-(1-(4-amino-3-(3-hydroxyprop-1-ynyl)-1H-pyrazolo[3,4-d]pyrimidin-1-yl)ethyl)-3-(3-fluorophenyl)-4H-chromen-4-one]
melting point: 171 to 173 °C | inhibition (P110 δ/Pi3K δ): 50 to 100%

CC(c1oc2ccccc2c(=O)c1-c1cccc(F)c1)n1nc(-c2cc(O)cc(Cl)c2)c2c(N)ncnc21 (centres unmarked) [Example 86a, 2-(1-(4-amino-3-(3-chloro-5-hydroxyphenyl)-1H-pyrazolo[3,4-d]pyrimidin-1-yl)ethyl)-3-(3-fluorophenyl)-4H-chromen-4-one]
melting point: 122 to 124 °C | inhibition (P110 δ/Pi3K δ): 50 to 100%

CC(c1oc2ccccc2c(=O)c1-c1cccc(F)c1)n1nc(-c2cccc(OC(F)(F)F)c2)c2c(N)ncnc21 (centres unmarked) [Example 87, 2-(1-(4-amino-3-(3-(trifluoromethoxy)phenyl)-1H-pyrazolo[3,4-d]pyrimidin-1-yl)ethyl)-3-(3-fluorophenyl)-4H-chromen-4-one]
melting point: 155 to 157 °C | inhibition (P110 δ/Pi3K δ): 50 to 100%

CC(c1oc2ccccc2c(=O)c1-c1cccc(F)c1)n1nc(-c2ccc(O)cc2)c2c(N)ncnc21 (centres unmarked) [Example 88a, 2-(1-(4-amino-3-(4-hydroxyphenyl)-1H-pyrazolo[3,4-d]pyrimidin-1-yl)ethyl)-3-(3-fluorophenyl)-4H-chromen-4-one]
melting point: 244 to 247 °C | inhibition (P110 δ/Pi3K δ): 50 to 100%

Nc1ncnc2c1ncn2Cc1oc2ccccc2c(=O)c1-c1cccc(F)c1 [Example 89, 2-((6-amino-9H-purin-9-yl)methyl)-3-(3-fluorophenyl)-4H-chromen-4-one]
melting point: 224 to 227 °C | inhibition (P110 δ/Pi3K δ): < 50%

Nc1cccc(-c2nn(Cc3oc4ccccc4c(=O)c3-c3ccccc3)c3ncnc(N)c23)c1 [Example 91, 2-((4-amino-3-(3-aminophenyl)-1H-pyrazolo[3,4-d]pyrimidin-1-yl)methyl)-3-phenyl-4H-chromen-4-one]
melting point: 157 to 159 °C | inhibition (P110 δ/Pi3K δ): < 50%

CC(c1oc2ccccc2c(=O)c1-c1cccc(F)c1)n1nc(-c2cnc(N)nc2)c2c(N)ncnc21 (centres unmarked) [Example 93, 2-(1-(4-amino-3-(2-aminopyrimidin-5-yl)-1H-pyrazolo[3,4-d]pyrimidin-1-yl)ethyl)-3-(3-fluorophenyl)-4H-chromen-4-one]
melting point: 264 to 268 °C | inhibition (P110 δ/Pi3K δ): 50 to 100%
